According to patent publication US8642621B2, “(4-phenyl-piperidin-1-yl)-[5-(1H-pyrazol-4-yl)-thiophen-3-yl]-methanone compounds and their use” (The University Of Edinburgh, priority 2009, dated 2014):
pIC50: −log10 of the molar value. Read-outs that look alike come from different tables or passages of the source.

Key:
[1] = In vitro human liver microsomal stability assay; assay type: in vitro ADME; settings: human liver microsomes
Method: In Vitro Human Liver Microsomal Stability Assay
To predict in vivo metabolism of compounds, the stability of compounds incubated with human liver microsomes in vitro was determined. Human liver microsome preparations were stored at −80° C. and thawed on ice prior to use. The thawed microsomes were diluted to a concentration of 2 mg/mL in 50 mM sodium phosphate, pH 7.4. Reference and test compounds were prepared as 10 mM stocks in 100% DMSO and diluted to 1 mM in acetonitrile before use. Each compound was tested in triplicate as follows:
4 μL of test or reference compound was added to a well of a 24-well microplate and 0.5 mL of 4 mM NADPH added. The plate was then transferred to a shaker for 10 minutes at room temperature. 30 μL of the compound/NADPH solution was transferred to the well of a 96-well microplate and incubated at 37° C. for 5 minutes. 30 μL of human liver microsomes (pre-incubated at 37° C. for 5 minutes) was added to the well containing the compound/NADPH solution and the plate incubated for the selected period of time (typically 0 or 30 minutes). The reaction was stopped by adding 60 μL of ice cold […] trichloroacetic acid. The plate was centrifuged at 1000 rpm for 5 minutes at room temperature and the supernatant transferred to the well of a new 96-well v-bottomed microplate for mass spectrometric analysis.
Samples were analyzed by TSQ Quantum Discovery Tandem Mass Spectrometer and Surveyor Liquid Chromatogram (Thermo, Hemel-Hempstead, UK). 10 μL of each sample was injected in a mobile phase consisting of 60%:40% methanol:5 mM ammonium acetate at a flow rate of 0.5 mL/minute. The column used was a BDS hypersil, C18, 50×2.1 mm with a 5 μm particle size.
Each compound was tuned with a spray voltage of 3000 V and a capillary temperature of 300° C. and values for tube lens, CID and product ions were determined.
The peak area for each compound was measured in triplicate for the 0 and 30 minute samples and the average of each was reported. The percentage remaining after 30 minutes was calculated as the average peak area of the sample after 30 minutes divided by the average peak area at 0 minutes. The RSD was 10% or lower for each compound.

[2] = molecular target: T1, human 11β-HSD1 enzyme (Homo sapiens, UniProt P28845); experiment: Cellular in vitro 11β-HSD1 enzyme inhibition assay (SPA, HEK293/11β-HSD1 cells); assay type: cell-based; settings: read-out: IC50 for 11β-HSD1 (HEK293)
T1 construct: stably transfected with a construct containing the full-length gene coding for the human 11β-HSD1 enzyme; expressed in transfected cells; HEK293/11β-HSD1 cells)
T1 sequence (P28845 whole entry): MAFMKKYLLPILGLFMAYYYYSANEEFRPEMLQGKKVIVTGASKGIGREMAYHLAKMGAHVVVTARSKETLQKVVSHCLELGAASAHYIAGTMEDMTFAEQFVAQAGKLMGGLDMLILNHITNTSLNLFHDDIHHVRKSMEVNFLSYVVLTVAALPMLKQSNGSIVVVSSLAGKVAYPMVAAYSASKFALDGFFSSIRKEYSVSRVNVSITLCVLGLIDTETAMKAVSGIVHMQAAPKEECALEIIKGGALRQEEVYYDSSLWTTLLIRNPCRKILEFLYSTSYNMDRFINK
Method: Cellular In Vitro 11β-HSD1 Enzyme Inhibition Assay
Compounds were assessed by a Scintillation Proximity Assay (SPA) performed according to the following protocol:
HEK293 cells were stably transfected with a construct containing the full-length gene coding for the human 11β-HSD1 enzyme to create HEK293/11β-HSD1 cells. Cells were routinely cultured in DMEM containing 10% calf foetal serum, 1% glutamine, and 1% penicillin and streptomycin. Prior to assay, cells were plated at 2×10^4 cells/well in 96-well poly-D-Lys coated flat-bottomed microplates and incubated in 5% CO2, 95% O2 at 37° C. for 24 hours. The media in each well was removed immediately before assay.
Compounds to be tested were dissolved in DMSO at 10 mM and serially diluted into water containing 10% DMSO. Diluted compounds at a volume of 10 μL were added to wells of a 96-well V-bottomed microplate. A solution of DMEM, 1% glutamine, 1% penicillin and streptomycin, and 22 nM tritiated cortisone was prepared and 90 μL added to each well of the assay plate. This solution (100 μL/well) was transferred to the plate containing the cells. The plate was then incubated in 5% CO2, 95% O2 at 37° C. for 2 hours.
Following this incubation, 50 μL of the assay solution was transferred to each well of a 96-well scintillation microplate. A mixture consisting of anti-mouse YSi SPA beads, pre-mixed with anti-cortisol antibody in assay buffer (50 mM Tris.HCl, pH 7.0; 300 mM NaCl; 1 mM EDTA, 5% glycerol) was prepared and 50 μL added to each well of the scintillation microplate. An adhesive strip was applied to the microplate and the plate gently shaken for at least 2 hours at room temperature, and then spun briefly on a low speed centrifuge. The plate was read on a scintillation counter suitable for 96-well microplates. For the calculation of percentage inhibition, a series of wells were added to the plate that represented the assay maximum and the assay minimum: one set that contained substrate without cells (minimum) and another set that contained substrate and cells without any compound (maximum).
The calculation of median inhibitory concentration (IC50) values for the compounds was performed using GraphPad Prism® software. Dose-response curves for each compound were plotted as fractional inhibition and data fitted to the four parameter logistic equation.

[3] = molecular target: T2, human 11β-HSD2 (Homo sapiens, UniProt P80365); experiment: Cellular in vitro 11β-HSD2 enzyme inhibition assay (CHO cells); assay type: cell-based; settings: CHO cells stably transfected with human 11β-HSD2; Table 1
T2 construct: CHO cells stably transfected with the full-length gene coding for human 11β-HSD2 were used; expressed in transfected cells
T2 sequence (P80365 1-405): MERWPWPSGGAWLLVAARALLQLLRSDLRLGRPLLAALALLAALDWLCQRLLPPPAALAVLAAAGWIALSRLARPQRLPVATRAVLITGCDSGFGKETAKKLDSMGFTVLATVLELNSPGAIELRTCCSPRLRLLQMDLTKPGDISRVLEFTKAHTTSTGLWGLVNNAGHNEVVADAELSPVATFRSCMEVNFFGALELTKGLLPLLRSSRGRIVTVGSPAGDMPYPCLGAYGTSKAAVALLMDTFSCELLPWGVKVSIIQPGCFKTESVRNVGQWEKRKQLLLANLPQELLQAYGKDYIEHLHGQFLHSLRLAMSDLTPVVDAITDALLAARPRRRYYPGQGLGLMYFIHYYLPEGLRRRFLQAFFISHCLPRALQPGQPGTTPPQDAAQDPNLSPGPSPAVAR
Method: Cellular In Vitro 11β-HSD2 Enzyme Inhibition Assay
Assays were carried out in 96-well microplates containing 1×10^5 cells/well. Controls and compounds were plated as above, so that the final DMSO concentration in each well was 1%. To initiate the assay, 90 μL of a solution of HAMS F-12 medium containing 1% glutamine, 1% penicillin and streptomycin, and 22 nM tritiated cortisol was added to each well of the assay plate. The plate was then incubated in 5% CO2, 95% O2 at 37° C. for 16 hours.
The assay solutions were transferred to glass tubes and 20 μL ethyl acetate added to each tube. Each tube was vortexed thoroughly and the upper layer containing the tritiated steroid transferred to a fresh glass tube. The solvent was evaporated by placing the tubes in a heating block at 65° C. under a stream of Nitrogen gas. 20 μL ethanol was added to each of the dried samples and vortexed briefly. Each sample was applied to a silica TLC plate and the plate dried. The plate was placed vertically in a glass tank containing 92% chloroform:8% ethanol and the solvent allowed to rise up the plate. The plate was dried, placed in an imaging cassette, and overlayed with a tritium imaging plate for 1-2 days. The amount of enzyme inhibition in each sample was determined by measuring the intensity of the substrate and product spots using a phosphoimager.
IC50 values for inhibitors were determined as described for 11β-HSD1.

[4] = Pharmacokinetics in rat; assay type: in vivo, male Sprague Dawley rats; settings: male, Sprague Dawley, whole blood, intravenous 1 mg/kg and oral 10 mg/kg, read-out: % F (% Bioavailability)
Method: The pharmacokinetics of certain compounds were determined following intravenous (1 mg/kg) and oral (10 mg/kg) administration to male Sprague Dawley rats. Dosing solution was prepared by mixing each compound with 2% DMSO, 38% PEG-400 and 60% (0.9%) NaCl. Solutions were passed through 0.2 μm filters prior to administration.
Following dosing and at appropriate time points, blood samples were taken from a lateral tail vein and transferred into a tube pre-treated with EDTA. Blood samples were analysed for parent compound by LCMS and the quantity of parent compound remaining determined. Non-compartmental analysis was applied to the data using WinNonlin™ software to determine the pharmacokinetic parameters for each compound.

[5] = HEK293 cells stably transfected with human 11β-HSD1, Table 1

Row | SMILES | % Parent Remaining at 30 min [1] | pIC50 [2, 5] | pIC50 [2] | pIC50 [3] | bioavailability [4] [%]
1 | O=C(c1csc(-c2cn[nH]c2)c1)N1CCC(O)(c2ccccc2Cl)CC1 [AA-08] | ++ (31-60% ++) | 8.00 | ≥ 6.30 | < 5.00 | 31 to 100
2 | O=C(c1csc(-c2cn[nH]c2)c1)N1CCC(F)(c2ccccc2Cl)CC1 [AA-36] | + (0-30% +) | 7.38 | ≥ 6.30 | < 5.00 | 
3 | O=C(c1csc(-c2cn[nH]c2)c1)N1C2CCC1CC(c1ccccc1)C2 (stereo not shown) [BB-08] | ++ (31-60% ++) | 6.94 | ≥ 6.30 | < 5.00 | 
4 | O=C(c1csc(-c2cn[nH]c2)c1)N1CCC(F)(c2cc(F)ccc2Cl)CC1 [AA-37] | ++ (31-60% ++) | 7.46 | ≥ 6.30 | < 5.00 | 
5 | O=C(c1csc(-c2cn[nH]c2)c1)N1CCC(O)(c2ccccc2F)CC1 [AA-04] | +++ (61-100% +++) | 7.36 | ≥ 6.30 | < 5.00 | 31 to 100
6 | Cc1cccc(F)c1C1(O)CCN(C(=O)c2csc(-c3cn[nH]c3)c2)CC1 [AA-22] | +++ (61-100% +++) | 7.42 | ≥ 6.30 | < 5.00 | 
7 | O=C(c1csc(-c2cn[nH]c2)c1)N1CCC(O)(c2ccc(Cl)cc2)CC1 [AA-02] | +++ (61-100% +++) |  | ≥ 6.30 |  | 31 to 100
8 | O=C(c1csc(-c2cn[nH]c2)c1)N1C2CCC1CC(O)(c1ccccc1)C2 (stereo not shown) [AA-06] | +++ (61-100% +++) | 7.68 | ≥ 6.30 | < 5.00 | 11 to 30
9 | O=C(c1csc(-c2cn[nH]c2)c1)N1CCC(F)(c2ccccc2F)CC1 [AA-18] | ++ (31-60% ++) | 6.98 | ≥ 6.30 | < 5.00 | 
10 | O=C(c1csc(-c2cn[nH]c2)c1)N1CCC(O)(c2ccccc2)CC1 [AA-01, (4-Hydroxy-4-phenyl-piperidin-1-yl)-[5-(1H-pyrazol-4-yl)-thiophen-3-yl]-methanone] | +++ (61-100% +++) | 6.68 | ≥ 6.30 | < 5.00 | 31 to 100
11 | O=C(c1csc(-c2cn[nH]c2)c1)N1CCC(F)(c2ccccc2)CC1 [AA-17] | +++ (61-100% +++) |  | 6.00 to 6.30 |  | 31 to 100
12 | COc1ccccc1C1CCN(C(=O)c2csc(-c3cn[nH]c3)c2)CC1 [BB-03] | + (0-30% +) | 6.97 | ≥ 6.30 | < 5.00 | 
13 | O=C(c1csc(-c2cn[nH]c2)c1)N1C2CCC1CC(O)(c1ccccc1Cl)C2 (stereo not shown) [AA-30] | ++ (31-60% ++) | 7.82 | ≥ 6.30 | < 5.00 | 
14 | COC1(c2ccccc2Cl)CCN(C(=O)c2csc(-c3cn[nH]c3)c2)CC1 [AA-33] | + (0-30% +) | 7.72 | ≥ 6.30 | < 5.00 | 
